Measured values reported in US20240050735A1, “SYSTEMS AND METHODS FOR TREATING AND INHIBITING WOUND INFECTIONS” (priority 2020, published 2024).
Read-outs that look alike come from different tables or passages of the source.

How the values were obtained:
planktonic MRSA = assay: Time-killing test on planktonic MRSA in stationary phase; type: cell-based, Methicillin-resistant S. aureus (MRSA) USA300; details: 5 mg mL^−1 DAP, within 24 hours
Description: MRSA bacteria was cultured in LB media in a 37° C. water shaking bath overnight to reach the concentration of 1×10^8 CFU mL^−1. Then, they were diluted to 10^5 CFU mL^−1 in 96-well plates by adding different concentrations of VAN solutions. After incubation for 24 hours without shaking, MIC of VAN to inhibit MRSA growth was measured by a Biotek Synergy H1 hybrid multi-mode microplate reader (BioTek, Winooski, Vt., USA) at OD600. To evaluate the killing time of VAN to bacteria in stationary phase (1×10^8 CFU mL^−1), VAN powder was added to bacteria solution to obtain concentration of 1 mg mL^−1, 3 mg mL^−1, 5 mg mL^−1, and 10 mg mL^−1, respectively, while remaining MRSA concentration of 1×10^8 CFU mL^−1. After incubation in a 37° C. water bath for 1 day, 2 days, 3 days and 4 days, the CFU of MRSA cells was tested by the standard plate spread counting assay, respectively. The time-killing tests of DAP with different concentrations (0.1 mg mL^−1, 0.5 mg mL^−1, 1 mg mL^−1, and 5 mg mL^−1) on MRSA planktonic cells were also performed, with the incubation time up to 24 hours.

[1] = test system: S. aureus persister cells; details: even at 100×MIC; cited from earlier work
[2] = type: in vitro ADME; details: for concentration delivered to wound tissues: 5 mg mL^−1 DAP loaded
Description: Investigations were also performed to determine the iontophoretic antibiotic delivery efficiency of the HIC-based biofilm treatment system 100 using high current intensities. These investigations included an ex vivo antibiotic delivery study using the same MRSA biofilm-infected porcine skin wound model as in the previous section. Vancomycin (VAN) was used here as a model drug, since it is the FDA-approved antibiotic and is the clinical gold standard for combating S. aureus infections.
First the VAN delivery efficiency was tested at different current intensities (from 0 mA cm^−2 (passive diffusion) to 75 mA cm^−2) applied by the HIC-based biofilm treatment system 100 for 1 hour. The drug/buffer chamber 114 of the working device 104 was loaded with 1 mg mL^−1 VAN in this study. The anode side was used as the working device 104 because VAN required anodal iontophoresis. The accumulated concentration of VAN in biofilm infected skin wound was measured immediately after iontophoresis using high performance liquid chromatography (HPLC). […] When 75 mA cm^−2 was used, the VAN concentration in wound tissue increased to 4.5±0.52 mg g^−1. The VAN concentration in wound tissue after passive diffusion, 0.5 mA cm^−2, and 19 mA cm^−2 iontophoresis were also measured. However, they could not be distinguished from the background interference of the residual biofilm components, so no quantitative results were obtained (data not shown). Importantly, the VAN concentration delivered by 75 mA cm^−2 iontophoresis for 1 hour exceeded the minimal biofilm eradication concentration (MBEC) of VAN reported for MRSA biofilm, which was 4 mg g^−1. The ability to deliver a lethal antibiotic concentration into biofilm-infected wounds within a short period of time was critical for biofilm treatment as it would minimize the chance for bacteria to develop adaptive tolerance.
The fetal pig skin samples (approximately 30×30 mm) were immersed in 10% (v/v) bleach for 5 minutes after hair removal. Then, skin samples were sterilized in 70% ethanol for 30 minutes. The surface of skin sample was further cleaned by 10% povidone-iodine and 70% isopropanol to prevent contamination. A 6-mm disposable biopsy punch was used to create an excisional wound. Samples were put into sterile 10-cm petri-dishes filled with sterile PBS (6 mL). The wound was then inoculated with 1×10^8 CFU mL^−1 MRSA bacteria solution (20 μL). The bacteria were allowed to grow in a 37° C. Heratherm™ compact microbiological incubator (ThermoFischer Scientific™, Waltham, Mass., USA) for 48 hours to form mature biofilms.
To evaluate the antibiotic delivery efficacy of VAN by high-intensity current, biofilm infected fetal pig skin wound was used. The DAP test setup was same as that of VAN, except no PBS chamber 122 was used. Instead, the inner surface of the skin wound contacted directly to the hydrogel 120 of the counter device 106. To evaluate the effect of electrical current intensity on the drug delivery efficacy, different current intensities from 0 to 75 mA cm^−2 were applied. To evaluate the effect of loading concentration of antibiotics, different concentrations of VAN and DAP from 1 mg mL^−1 to 10 mg mL^−1 were used. Since VAN is […] and DAP is negatively charged under physiological environment, anode HIC-based device was placed facing biofilm for VAN iontophoresis, and cathode HIC-based device was placed facing biofilm for DAP iontophoresis. Samples were collected immediately after different treatments. The concentrations of antibiotics delivered into skin wound samples were measured by high-performance liquid chromatography (HPLC). The permeation coefficient (Pc, cm s^−1) was then calculated (Pc=J/C, where J is antibiotic delivery flux in tissue samples (μg (cm^2s)^−1, C is the loading concentration of antibiotic solution (μg m L^−1)). […]

HaCaT cells = assay: Cell toxicity of high concentration of antibiotics, LIVE/DEAD stain; type: cell-based, human; details: 20 mg mL^−1 DAP, 24 hour incubation
Description: (§1) To evaluate the cell toxicity of the high concentration of antibiotics, HaCaT cells and HDFa cells were used. 2×10^4 HaCat cells and 2×10^3 HDFa cells were seeded in each well of a 96-well plate. After being cultured in an incubator under 37° C. and 5% CO2 for 24 hours, 4.5 mg mL^−1 VAN and 20 mg mL^−1 DAP were added to the culture media, respectively. Both HaCat cells and HDFa cells were treated by VAN for two days, and exposed to DAP for one day, respectively. The cell toxicity of the two cells at the end time points were evaluated by LIVE/DEAD stain and visualized by a confocal laser scanning microscope (CLSM, LSM 710, Zeiss, Germany).

HDFa cells = assay: as above; type: cell-based, human; details: 20 mg mL^−1 DAP, 24 hour incubation
Description: as §1

S. gordonii biofilms = details: cited from earlier work
[3] = type: in vitro ADME, porcine; details: for distribution in wound tissue (fluorescence): 1 mg mL^−1 FD-4
Description: It was determined that high-intensity iontophoresis using the HIC-based biofilm treatment system 100 was able to enhance the VAN penetration depth in wound tissues. A high penetration depth would allow effective treatment of bacteria in deeper layers of clinical biofilm infections to minimize biofilm reformation. A fluorescently labeled dextran (M.W.=4 kDa, FD-4) was used to visualize drug distribution in wound tissue immediately after iontophoresis in this test. […] All wound tissues were dehydrated by acetone before sectioning to minimize FD-4 mobility during sample processing. When passive diffusion and 0.5 mA cm^−2 were applied, the fluorescence was indiscernible under microscope. […] This penetration depth was higher than the typical thickness of in vivo S. aureus biofilm infections in skin wounds (150 μm above wound surface and 190 μm below wound surface).
FD-4 penetration and distribution in the MRSA biofilm infected skin wound was evaluated by cryo-section and fluorescent microscopy. Briefly, samples were collected by 8-mm disposable biopsy punch and dehydrated in acetone for 10 to 30 minutes. After being air dried for another 10 to 30 minutes, the samples were embedded in tissue freezing medium (OCT) and sectioned to obtain 10 μm section under −20 ° C. Section samples were then observed under a fluorescent microscope (DMI 6000 B, Leica, Bannockburn, Ill., USA).

## CCCCCCCCCC(=O)N[C@@H](Cc1c[nH]c2ccccc12)C(=O)N[C@H](CC(N)=O)C(=O)N[C@@H](CC(=O)O)C(=O)N[C@@H]1C(=O)NCC(=O)N[C@@H](CCCN)C(=O)N[C@@H](CC(=O)O)C(=O)N[C@H](C)C(=O)N[C@@H](CC(=O)O)C(=O)NCC(=O)N[C@H](CO)C(=O)N[C@@H]([C@H](C)CC(=O)O)C(=O)N[C@@H](CC(=O)c2ccccc2N)C(=O)O[C@@H]1C [DAP, Daptomycin]
Planktonic MRSA
  bacterial count after incubation (from 10^8 CFU g^−1): 0 CFU g^−1
[1]
  killing of S. aureus persister cells: not capable of killing
[2]; 5 mg mL^−1 DAP
  Pc at 75 mA cm^−2 higher than 0.5 mA cm^−2 iontophoresis: 10.1 times
  Pc at 75 mA cm^−2 higher than passive diffusion: 12.0 times
[2]; 0.5 mA cm^−2 iontophoresis, 5 mg mL^−1 DAP
  permeation coefficient (Pc): 15.7±3.37 ×10^−6 cm s^−1
[2]; 75 mA cm^−2, 1 hour, 1 mg mL^−1 DAP loaded
  concentration delivered into wound tissue: 3.3 ± 1.49 mg/g
[2]; 75 mA cm^−2, 1 hour
  concentration delivered to wound tissues: 19.9 ± 1.45 mg/g
[2]; 75 mA cm^−2, 1 hour, 10 mg mL^−1 DAP loaded
  concentration delivered into wound tissue: 32.8 ± 5.68 mg/g
[2]; 75 mA cm^−2 iontophoresis, 5 mg mL^−1 DAP
  permeation coefficient (Pc): 158.3±11.18 ×10^−6 cm s^−1
[2]; passive diffusion, 5 mg mL^−1 DAP
  permeation coefficient (Pc): 13.2±3.15 ×10^−6 cm s^−1
[2]; passive diffusion, 1 hour
  concentration delivered to wound tissues: 1.7 ± 0.59 mg/g
HaCaT cells
  viability of skin cells: did not have significant impact
HDFa cells
  viability of skin cells: did not have significant impact

## gentamicin
S. gordonii biofilms; 0.4 mA cm^−2 with 2 μg mL^−1 gentamicin, 24 hours
  biofilm bacterial count reduction: 4.3 log10 scales
S. gordonii biofilms; antibiotic alone
  bacteria count reduction: 0.8 log10 scale

## Fluorescein isothiocyanate (FITC) labeled dextran-4 kDa [FD-4]
[3]; 0.5 mA cm^−2, 1 hour
  distribution in wound tissue (fluorescence): indiscernible
[3]; 19 mA cm^−2, 1 hour
  distribution in wound tissue (fluorescence): fluorescence could only be seen near the upper boundary of the wound tissue
[3]; 75 mA cm^−2, 1 hour
  penetration depth (entire tissue thickness, after dehydration): 182.4±12.62 μm
  penetration depth (entire tissue thickness, before dehydration): 955.7±192.56 μm
  distribution in wound tissue (fluorescence): penetrated the entire thickness of the tissue sample
[3]; passive diffusion, 1 hour
  distribution in wound tissue (fluorescence): indiscernible
